According to the supplement of paper PMC10307832:

Assays:
Test in all cases: relative viability (nuclei count vs DMSO), 5 days (fraction); higher = more cells survive
[1] = compound: Cn1cc(-c2cnn3c(N)c(Br)c([C@@H]4CCCNC4)nc23)cn1 + COc1cc2c(Oc3ccc(NC(=O)C4(C(=O)Nc5ccc(F)cc5)CC4)cc3F)ccnc2cc1OCCCN1CCOCC1 [Foretinib] (partner 0.25 µM)
In short: (§1)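 The day after seeding in 1536-well plates, lung cancer cell lines were treated by pin tool with a single drug, or with a fixed anchor-drug dose together with five library-drug doses (not always all listed) in √10 steps. After 5 days, a combined fix-and-stain solution (final 0.05% Triton X-100, 1% formaldehyde, 1 ug/ml Hoechst) was added. Nuclei counted on 4× images gave relative viability as treated counts over vehicle counts, reported as the median of duplicate plates.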

[2] = compound: Cn1cc(-c2cnn3c(N)c(Br)c([C@@H]4CCCNC4)nc23)cn1 + Cc1cc(Nc2cc(N3CCN(C)CC3)nc(Sc3ccc(NC(=O)C4CC4)cc3)n2)n[nH]1 [Tozasertib] (partner 0.1 µM)
In short: as §1

[3] = compound: Cn1cc(-c2cnn3c(N)c(Br)c([C@@H]4CCCNC4)nc23)cn1 + NC(=O)Nc1cc(-c2cccc(F)c2)sc1C(=O)N[C@H]1CCCNC1 [AZD7762] (partner 0.2 µM)
In short: as §1

[4] = compound: Cn1cc(-c2cnn3c(N)c(Br)c([C@@H]4CCCNC4)nc23)cn1 + CCNC(=O)c1noc(-c2cc(C(C)C)c(O)cc2O)c1-c1ccc(CN2CCOCC2)cc1 [Luminespib] (partner 0.01 µM)
In short: as §1

| Cell Line | relative viability ([1]; first compound 0.05 µM) | relative viability ([1]; first compound 0.1581 µM) | relative viability ([1]; first compound 0.5 µM) | relative viability ([1]; first compound 1.581 µM) | relative viability ([1]; first compound 5 µM) | relative viability ([2]; first compound 0.05 µM) | relative viability ([2]; first compound 0.1581 µM) | relative viability ([2]; first compound 0.5 µM) | relative viability ([2]; first compound 1.581 µM) | relative viability ([2]; first compound 5 µM) | relative viability ([3]; first compound 0.05 µM) | relative viability ([3]; first compound 0.1581 µM) | relative viability ([3]; first compound 0.5 µM) | relative viability ([3]; first compound 1.581 µM) | relative viability ([3]; first compound 5 µM) | relative viability ([4]; first compound 0.05 µM) | relative viability ([4]; first compound 0.1581 µM) | relative viability ([4]; first compound 0.5 µM) | relative viability ([4]; first compound 1.581 µM) | relative viability ([4]; first compound 5 µM) |
| --- | --- | --- | --- | --- | --- | --- | --- | --- | --- | --- | --- | --- | --- | --- | --- | --- | --- | --- | --- | --- |
| NCI-H647 | 1.17 | 1.27 | 1.25 | 1.01 | 0.416 | 0.329 | 0.312 | 0.0065 | 0.182 | 0.173 | 0.497 | 0.496 | 0.349 | 0.37 | 0.238 | 0.232 | 0.262 | 0.127 | 0.106 | 0.104 |
| NCI-H650 | 1.14 | 1.03 | 1.02 | 1 | 0.881 | 0.732 | 0.753 | 0.821 | 0.654 | 0.603 | 0.954 | 0.923 | 1.1 | 1.04 | 0.928 | 0.807 | 0.872 | 0.749 | 0.811 | 0.345 |
| NCI-H727 | 0.949 | 0.905 | 0.967 | 0.882 | 0.527 | 0.695 | 0.489 | 0.806 | 0.503 | 0.468 | 0.591 | 0.52 | 0.512 | 0.536 | 0.472 | 0.345 | 0.412 | 0.315 | 0.354 | 0.343 |
| NCI-H838 | 1.1 | 1.2 | 1.01 | 1.11 | 0.965 | 0.272 | 0.244 | 0.312 | 0.264 | 0.19 | 0.991 | 0.92 | 1 | 0.879 | 0.84 | 0.346 | 0.252 | 0.261 | 0.225 | 0.222 |
